The nature of data set [1]: Elimination half-life of compound A. Particulars: in vivo; read-out: elimination half-life (T1/2). The text has this:
Taking into consideration the results of the clinical trial described above, the present inventors conducted intensive studies to design the formulation by paying attention to the control of a release rate of the drug from a formulation to the extent that the release is not affected by food intake or the like, rather than the addition of release control.

The nature of data set [2]: Pharmacokinetics (PK) test of immediate release formulation (capsule formulation) in human: Cmax and heart rate. It counts as in vivo. The settings on record: healthy subjects; immediate release capsules, 0.1 mg to 340 mg. On the procedure:
An immediate release formulation (capsule formulation) containing compound A was administered to healthy subjects in a fasted state, before 30 min from the intake of a meal, or after 30 min from the meal, and the drug concentration in the plasma was measured. The immediate release formulations (capsule formulations) containing 0.1 mg, 1 mg, 5 mg, 20 mg, and 80 mg of the compound A were used in combinations as needed so that the dose of compound A became 0.1 mg, 1 mg, 3 mg, 10 mg, 30 mg, 100 mg, 160 mg, 240 mg, and 340 mg.

Turning to `Nc1nc(CC(=O)Nc2ccc(CCNC[C@H](O)c3ccccc3)cc2)cs1` [compound A, (R)-2-(2-aminothiazol-4-yl)-4′-[2-[(2-hydroxy-2-phenylethyl)amino]ethyl]acetic acid anilide], in data set [1], the half-life lay within 18 to 24 h. Also, the “relation between maximum plasma concentration (Cmax) and increase in heart rate from the base line” value in data set [2] was “a positive correlation was observed”.
